# Measurements: patent US20030065039A1, “Biologically active 1,3-bis-aromatic-prop-2-en-1-ones, 1,3-bis-aromatic-propan-1-ones, and 1,3-bis-aromatic-prop-2-yn-1-ones” (Statens Serum Institute, priority 1997, published 2003)
# Marks after values point to notes of the source that are not given here.
# Tests used:
# Clostridium perfringes = assay: Effect on anaerobic bacteria (growth); type: cell-based; details: at a concentration of 5 μg/ml
# Peptostreptococcus = assay: Effect on anaerobic bacteria (growth); type: cell-based; details: at a concentration of 5 μg/ml
# FRD (L. major) = assay: Effect on fumarate reductase of L. major promastigotes; type: biochemical, Leishmania major; details: incubation at 28° C. for 5 min
# Method: FIG. 5. Effect of licochalcone A on Leishmania major fumarate reductase. Digitonin treated promastigotes was incubated with licochalcone A at 28° C. 30 min, and the remaining enzyme activity was measured. Data are mean ±SEM from 6 different experiments.
# FIG. 6. Effect of licochalcone A on Leishmania major fumarate reductase. KCL-solubilised fumarate reductase was incubated with licochalcone A at 28° C. 30 min, and the remaining enzyme activity was measured. Data are mean ±SEM from 6 different experiments.
# Parasites were harvested by centrifugation at 1000 g for 10 min, and were washed 2 times in an isotonic phosphate saline buffer (50 mM sodium phosphate, pH 7.2, 90 mM NaCl, 5 mM KCl). […]
# NADH-FRD activity was determined as the rate of NADH-oxidation upon addition of 1 mM fumarate in the KCl-solubilized fraction. The reaction was monitored spectrophotometrically at 340 nm ((=6.2 mM^−1 cm^−1) using 100 μM NADH and usually 0.1 mg protein in both reference and sample cuvettes. The measurement was carried out in a Shimadzu UV-190 double-beam spectrophotometer. Protein concentrations were determined using a Bio-Rad protein assay (Bio-Rad Laboratories, 200 Alfred Nobel Dr. Hercules, Calif. 94547, USA).
# KCl solubilized fraction of Leishmania major promastigotes was incubated with different concentrations of various oxygenated chalcones at 28° C. and the remaining FRD activity was measured.
# SDH (L. major) = assay: Effect on succinate dehydrogenase of L. major promastigotes; type: biochemical, Leishmania major
# Excerpt: FIG. 10. Licochalocone A on SDH of L. major promastigotes (membrane rich fraction)
# SDH (human MNC) = target: T1, SDH (human MNC) (Homo sapiens, UniProt P31040); assay: Effect on human MNC succinate dehydrogenase; type: biochemical; details: incubation at 28° C. for 5 min
# T1 construct: endogenous in cells; host or cells: human blood mononuclear cells (MNC), membrane rich fraction
# T1 sequence (P31040 43-664): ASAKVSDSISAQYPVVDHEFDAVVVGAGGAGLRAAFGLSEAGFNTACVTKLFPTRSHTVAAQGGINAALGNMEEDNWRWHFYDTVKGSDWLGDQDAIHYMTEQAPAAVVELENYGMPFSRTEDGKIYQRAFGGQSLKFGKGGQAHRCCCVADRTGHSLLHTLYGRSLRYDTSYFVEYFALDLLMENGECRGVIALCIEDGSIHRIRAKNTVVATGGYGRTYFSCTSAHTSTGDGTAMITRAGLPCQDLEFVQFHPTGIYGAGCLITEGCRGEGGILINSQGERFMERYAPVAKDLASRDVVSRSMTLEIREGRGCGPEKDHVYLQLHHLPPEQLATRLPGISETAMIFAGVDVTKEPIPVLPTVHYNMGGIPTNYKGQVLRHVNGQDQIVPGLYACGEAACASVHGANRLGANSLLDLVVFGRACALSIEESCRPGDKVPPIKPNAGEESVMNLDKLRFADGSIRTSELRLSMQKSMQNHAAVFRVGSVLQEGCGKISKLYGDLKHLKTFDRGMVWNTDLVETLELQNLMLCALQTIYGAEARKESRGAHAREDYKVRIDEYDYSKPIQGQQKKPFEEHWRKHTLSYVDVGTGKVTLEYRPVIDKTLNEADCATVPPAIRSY
# T1 sequence (P21912 29-280 partner): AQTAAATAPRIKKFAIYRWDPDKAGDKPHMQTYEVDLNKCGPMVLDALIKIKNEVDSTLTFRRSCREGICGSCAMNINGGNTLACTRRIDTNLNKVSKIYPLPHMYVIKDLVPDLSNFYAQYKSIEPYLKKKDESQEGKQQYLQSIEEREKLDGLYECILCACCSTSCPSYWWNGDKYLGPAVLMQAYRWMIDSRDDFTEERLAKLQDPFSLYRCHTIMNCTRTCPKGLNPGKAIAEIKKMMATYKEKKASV
# T1 sequence (Q99643 30-169 partner): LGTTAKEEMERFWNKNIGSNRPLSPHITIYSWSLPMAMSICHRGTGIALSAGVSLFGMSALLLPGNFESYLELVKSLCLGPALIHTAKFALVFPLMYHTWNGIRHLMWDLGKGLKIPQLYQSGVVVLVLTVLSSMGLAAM
# T1 sequence (O14521 57-159 partner): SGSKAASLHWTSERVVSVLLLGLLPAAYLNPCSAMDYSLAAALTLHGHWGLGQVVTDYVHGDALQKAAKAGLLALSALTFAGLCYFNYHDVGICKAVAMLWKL
# SDH (J774) = target: T2, SDH (J774) (Mus musculus, UniProt Q8K2B3); assay: Effect on J774 cells succinate dehydrogenase; type: biochemical; details: incubation at 28° C. for 5 min
# T2 construct: endogenous in cells; host or cells: J774 cells, membrane rich fraction
# T2 sequence (Q8K2B3 43-664): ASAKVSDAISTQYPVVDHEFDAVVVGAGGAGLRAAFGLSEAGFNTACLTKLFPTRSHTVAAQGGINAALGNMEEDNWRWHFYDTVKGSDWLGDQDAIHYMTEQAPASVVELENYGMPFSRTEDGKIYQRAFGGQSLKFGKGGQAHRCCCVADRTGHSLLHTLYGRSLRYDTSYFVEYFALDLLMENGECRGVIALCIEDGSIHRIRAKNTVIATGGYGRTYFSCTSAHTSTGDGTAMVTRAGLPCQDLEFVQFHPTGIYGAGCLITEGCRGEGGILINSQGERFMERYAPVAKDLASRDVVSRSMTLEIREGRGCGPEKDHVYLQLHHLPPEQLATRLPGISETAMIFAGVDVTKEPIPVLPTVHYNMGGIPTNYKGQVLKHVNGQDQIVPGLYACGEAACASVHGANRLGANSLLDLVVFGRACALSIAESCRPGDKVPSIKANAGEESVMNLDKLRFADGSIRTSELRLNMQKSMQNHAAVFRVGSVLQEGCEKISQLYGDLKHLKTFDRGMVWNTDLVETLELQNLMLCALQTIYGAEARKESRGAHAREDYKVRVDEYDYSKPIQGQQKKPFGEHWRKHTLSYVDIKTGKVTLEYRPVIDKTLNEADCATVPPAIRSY
# T2 sequence (Q9CQA3 31-282 partner): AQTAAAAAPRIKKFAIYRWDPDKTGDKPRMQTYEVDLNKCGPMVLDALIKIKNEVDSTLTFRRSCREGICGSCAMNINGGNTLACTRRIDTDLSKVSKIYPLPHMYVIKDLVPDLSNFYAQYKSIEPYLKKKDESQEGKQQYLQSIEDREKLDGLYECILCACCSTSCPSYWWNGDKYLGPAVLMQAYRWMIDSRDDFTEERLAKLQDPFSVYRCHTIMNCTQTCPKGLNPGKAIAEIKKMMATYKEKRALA
# T2 sequence (Q9CZB0 30-169 partner): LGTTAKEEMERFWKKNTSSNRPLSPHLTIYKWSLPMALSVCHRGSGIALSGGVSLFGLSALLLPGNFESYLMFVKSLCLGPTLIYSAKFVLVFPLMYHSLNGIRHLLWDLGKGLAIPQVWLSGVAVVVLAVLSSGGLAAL
# T2 sequence (Q9CXV1 57-159 partner): as the sequence (O14521 57-159 partner) above, with L24I, A27G, A34V, M35V, G47S, A63T, Q65P, K69R, K95R counted along it
# NDH (L. major) = assay: Effect on L. major NADH dehydrogenase; type: biochemical, Leishmania major; details: incubation at 28° C.
# Excerpt: FIG. 11. Effect of licochalcone A on Leishmania major NADH dehhydrogenase. […] Data are mean ±SEM from 6 different experiments.
# NDH (human MNC) = assay: Effect on human MNC NADH dehydrogenase; type: biochemical; details: incubation at 28° C. for 5 min
# Method: FIG. 15. Effect of licochalcone A on human MNC NADH dehydrogenase. Membrane rich fraction of parasite was incubated with licochalcone A at 28° C. for 5 min, the remaining enzyme activity was measured. Data are mean ±SEM from 4 different experiments.
# SCC (L. major) = assay: Effect on L. major succinate-cytochrome c reductase; type: biochemical, Leishmania major; details: incubation at 28° C. for 5 min
# Method: FIG. 12. Effect of licochalcone A on Leishmania major succinate-cytochrome c reductase. Membrane rich fraction of parasite was incubated with licochalcone A at 28° C. for 5 min, the remaining enzyme activity was measured. Data are mean ±SEM from 4 different experiments.
# NCC (L. major) = assay: Effect on L. major NADH-cytochrome c reductase; type: biochemical, Leishmania major; details: incubation at 28° C. for 5 min
# Method: FIG. 13. Effect of licochalcone A on Leishmania major NADH-cycochrome c reductase. Membrane rich fraction of parasite was incubated with licochalcone A at 28° C. for 5 min, the remaining enzyme activity was measured. Data are mean ±SEM from 4 different experiments.
# [1] = Single dose toxicity in mice; type: in vivo
# Method: (§1) Also in rats, LDlow po>1000 mg/kg was found. Studies carried out later in the project using the dosing schedule, also used to measure effects against the malaria parasites, confirmed the very good oral tolerance to all compounds tested.
# [2] = Single dose toxicity in rats; type: in vivo
# Method: as §1
# Leishmania major = assay: Respiration of Leishmania major (O2 consumption, CO2 production); type: cell-based
# [3] = system: parasite mitochondrial dehydrogenase; assay: Parasite mitochondrial dehydrogenase activity; type: biochemical, Leishmania major
# CHO cells = assay: Chromosomal aberration assay with CHO cells; type: cell-based; details: both with and without metabolic activation (S9 mix)
smiles,measurement,setting,value
"COc1cc(/C=C/C(=O)c2ccc(C3CCCCC3)cc2)cc(OC)c1 [PH104, 3,5-dimethoxy-4′-cyclohexylchalcone]",melting point,,75.5 to 76.2 °C
C=CC(C)(C)c1cc(/C=C/C(=O)c2ccc(O)cc2)c(OC)cc1O [Licochalcone A],growth of Clostridium perfringes,Clostridium perfringes,completely inhibted
same,growth of Peptostreptococcus,Peptostreptococcus,completely inhibted
same,IC50,FRD (L. major),54.7 μg/mg protein
same,inhibition,SDH (L. major); at 250 μg/mg protein,*29% inhibition at 250 μg/mg protein
same,IC50,SDH (L. major); incubation at 28° C. for 5 min,>250* μg/mg protein
same,IC50,SDH (human MNC),799.7 μg/mg protein
same,IC50,SDH (J774),1122.2 μg/mg protein
same,IC50,NDH (L. major),415.1 μg/mg protein
same,IC50,NDH (human MNC),454.2 μg/mg protein
same,IC50,SCC (L. major),647.6 μg/mg protein
same,IC50,NCC (L. major),387.5 μg/mg protein
same,LDlow po,[1],> 1000 mg/kg
same,LDlow po,[2],> 1000 mg/kg
same,"respiration of the parasite (O2 consumption, CO2 production)",Leishmania major,inhibited the respiration of the parasite in a concentration-dependent manner
same,activity of the parasite mitochondrial dehydrogenase,[3],inhibited the activity of the parasite mitochondrial dehydrogenase
"C=CCOc1ccc(C(=O)/C=C/c2cc(OC)cc(OC)c2)cc1 [SBC-35ma, 3,5-dimethoxy-4′-allyloxychalcone]",chromosomal aberration assay with CHO cells,CHO cells,clear clastogenic response
